Data on 21 molecules can be found in patent publication USRE47689E1, “Compounds for treating spinal muscular atrophy” (PTC Therapeutics, Inc., priority 2011, dated 2019).

The subject of data set [1] is SMN2 minigene (full length SMN2 minigene mRNA containing SMN2 exon 7). Put plainly: SMN2 minigene mRNA splicing RT-qPCR assay in cultured cells. The data set is classed as cell-based, human. Conditions: Homo sapiens, HEK293-H, read-out: EC1.5x for production of full length SMN2 mRNA. The method in brief: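 Lysates → one-step RT-qPCR, minigene-specific primers (0.4 μM final) + GAPDH multiplex, 40 cycles. FL/GAPDH vs DMSO; EC1.5x, star-binned.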
(Quantitative PCR measures a nucleic acid by following its amplification.)

For data set [2], the system named is Smn protein. In words: Smn protein assay in cultured cells (SMN HTRF). Conditions: 48 hours; for EC1.5x (concentration giving 1.5-fold Smn protein increase): SMA Type 1 patient fibroblast cells (GM03813), 7-point concentration curve, SMN HTRF, concentration producing 1.5 times Smn protein vs DMSO vehicle control, read-out: EC1.5x for Smn protein expression; for maximum fold (Fold) increase of Smn protein: SMA patient fibroblast cells, 7-point concentration data, fold increase relative to vehicle control (SMN HTRF). The format is cell-based, human. Put shortly:
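Smn in SMA fibroblast lysates, measured by anti-SMN HTRF after 48 h compound exposure; EC1.5x from fold change over vehicle.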
In general terms: In TR-FRET formats the signal depends on donor and acceptor labels being close together.

Where [3] appears, read: HEK293H cells stably transfected with SMN2-A minigene, 24 hours, 7-point concentration curve, 1.5-fold relative to vehicle-treated cells.

Where two headings read alike, the source gives them in different places. Bounds are passed on as bounds.

In the case of `Cc1ccn2nc(-c3cc4ccc(N5CCN(C)CC5)cc4oc3=O)cc2c1` [Compound 303, 7-(4-methylpiperazin-1-yl)-3-(5-methylpyrazolo[1,5-a]pyridin-2-yl)-2H-chromen-2-one], the melting point (in general, the temperature, or range, at which the solid turns liquid) fell in the range of 279 to 281 °C. The EC (1.5-fold) in data set [1] (setting [3]) fell in the range of 0.3 to 1 µM. For the same molecule, in data set [2], the EC1.5x (concentration giving 1.5-fold Smn protein increase) was 3000 to 10000 nM; the “maximum fold (Fold) increase of Smn protein” value (shortened to “maximum fold (Fold) increase”) is “*** (fold increase between >1.35 and ≤1.5)”.
Consider `Cc1nn2cc(-c3cc4ccc(N5CCN[C@H](C)C5)cc4oc3=O)nc2s1` [Compound 483, 3-(2-methylimidazo[2,1-b][1,3,4]thiadiazol-6-yl)-7-[(3R)-3-methylpiperazin-1-yl]-2H-chromen-2-one], for which the melting point was in the range of 206 to 210 °C. Further, in data set [1] (setting [3]), the EC (1.5-fold) is 0.1 to 0.3 µM. Also, in data set [2], the EC1.5x (concentration giving 1.5-fold Smn protein increase) was 1000 to 3000 nM; the “maximum fold (Fold) increase” value was “*** (fold increase between >1.35 and ≤1.5)”.
Molecule `C[C@H]1CN(c2ccc3cc(-c4cccc(C(F)(F)F)c4)c(=O)oc3c2)CCN1` [Compound 490, 7-[(3S)-3-methylpiperazin-1-yl]-3-[3-(trifluoromethyl)phenyl]-2H-chromen-2-one] registered a melting point of 141 to 143 °C. In addition, in data set [1] (setting [3]), the EC (1.5-fold) lay in the range of 1 to 3 µM. Moreover, the “maximum fold (Fold) increase” value in data set [2] is listed as “* (maximum fold increase of ≤1.2)”.
`CCCN1CCN(c2ccc3cc(-c4cn5cc(C)ccc5n4)c(=O)oc3c2)CC1` [Compound 207, 3-(6-methylimidazo[1,2-a]pyridin-2-yl)-7-(4-propylpiperazin-1-yl)-2H-chromen-2-one] returned a melting point of 220 to 222 °C. The EC (1.5-fold) in data set [1] (setting [3]) fell in the range of 1 to 3 µM. Further, the “maximum fold (Fold) increase” value in data set [2] is “** (fold increase between >1.2 and ≤1.35)”.
Molecule `Cc1cn2cc(-c3cc4ccc(N5CCN(C)[C@H](C)C5)cc4oc3=O)cnc2n1` [Compound 660, 7-[(3R)-3,4-dimethylpiperazin-1-yl]-3-(2-methylimidazo[1,2-a]pyrimidin-6-yl)-2H-chromen-2-one] registered a melting point of 280 to 282 °C. In addition, in data set [1] (setting [3]), the EC (1.5-fold) is below 0.1 µM. Moreover, in data set [2], the EC1.5x (concentration giving 1.5-fold Smn protein increase) was 300 to 1000 nM and the “maximum fold (Fold) increase” value is on record as “***** (fold increase >1.65)”.
`Cc1ccn2cc(-c3cc4ccc(N5CCCNCC5)cc4oc3=O)nc2n1` [Compound 230, 7-(1,4-diazepan-1-yl)-3-(7-methylimidazo[1,2-a]pyrimidin-2-yl)-2H-chromen-2-one]: the melting point lay in the range of 286 to 288 °C. Further, in data set [1] (setting [3]), the EC (1.5-fold) was in the range of 0.3 to 1 µM. Also, the “maximum fold (Fold) increase” value in data set [2] is “*** (fold increase between >1.35 and ≤1.5)”.
In the case of `O=c1oc2cc(N3CCNCC3)ccc2cc1-c1cccnc1` [Compound 12, 7-(piperazin-1-yl)-3-(pyridin-3-yl)-2H-chromen-2-one], the melting point is 170 to 172 °C. Besides, in data set [1] (24 h), the EC (1.5-fold) lay within 3 to 30 µM. In data set [2], the “maximum fold (Fold) increase” value was “* (maximum fold increase of ≤1.2)”.
On to `CN1CCCN(c2ccc3cc(-c4nc5ccccc5o4)c(=O)oc3c2)CC1` [Compound 47, 3-(1,3-benzoxazol-2-yl)-7-(4-methyl-1,4-diazepan-1-yl)-2H-chromen-2-one], for which the melting point was in the range of 170 to 173 °C. For the same molecule, the EC (1.5-fold) in data set [1] (setting [3]) lay in the range of 3 to 30 µM. In data set [2], the “maximum fold (Fold) increase” value is “** (fold increase between >1.2 and ≤1.35)”.
In the case of `Cc1cn2cc(-c3cc4ccc(NC5CCNCC5)cc4oc3=O)nc2c(C)n1` [Compound 562, 3-(6,8-dimethylimidazo[1,2-a]pyrazin-2-yl)-7-(piperidin-4-ylamino)-2H-chromen-2-one], the melting point fell in the range of 255 to 261 °C. Moreover, the EC (1.5-fold) in data set [1] (setting [3]) is below 0.1 µM. For the same molecule, in data set [2], the EC1.5x (concentration giving 1.5-fold Smn protein increase) was below 300 nM; the “maximum fold (Fold) increase” value is “**** (fold increase between >1.5 and ≤1.65)”.
`Cc1csc(-c2cc3ccc(N4C[C@@H](C)NC[C@@H]4C)cc3oc2=O)n1` [Compound 299, 7-[(2S,5R)-2,5-dimethylpiperazin-1-yl]-3-(4-methyl-1,3-thiazol-2-yl)-2H-chromen-2-one] yielded a melting point of 184 to 190 °C. For the same molecule, the EC (1.5-fold) in data set [1] (setting [3]) is 1 to 3 µM. For the same molecule, the “maximum fold (Fold) increase” value in data set [2] was “* (maximum fold increase of ≤1.2)”.
In the case of `Cc1cn2cc(-c3cc4ccc(N5CCN(C)[C@H](C)C5)cc4oc3=O)nc2c(C)n1` [Compound 606, 3-(6,8-dimethylimidazo[1,2-a]pyrazin-2-yl)-7-[(3R)-3,4-dimethylpiperazin-1-yl]-2H-chromen-2-one], the melting point fell in the range of 220 to 221 °C. Further, in data set [1] (setting [3]), the EC (1.5-fold) is below 0.1 µM. Also, in data set [2], the EC1.5x (concentration giving 1.5-fold Smn protein increase) was below 300 nM and the “maximum fold (Fold) increase” value is listed as “***** (fold increase >1.65)”.
With `CCC1CN(c2ccc3cc(-c4cn5cc(C)nc(C)c5n4)c(=O)oc3c2)CCN1C` (stereo not drawn) [Compound 676, 3-(6,8-dimethylimidazo[1,2-a]pyrazin-2-yl)-7-(3-ethyl-4-methylpiperazin-1-yl)-2H-chromen-2-one], the melting point lay in the range of 258 to 262 °C. Moreover, the EC (1.5-fold) in data set [1] (setting [3]) is below 0.1 µM. In data set [2], the EC1.5x (concentration giving 1.5-fold Smn protein increase) was below 300 nM and the “maximum fold (Fold) increase” value is listed as “***** (fold increase >1.65)”.
In the same order, the values of `Cc1cn2cc(-c3cc4ccc(CCCCN(C)C)cc4oc3=O)nc2c(C)n1` [Cpd 902, 7-[4-(dimethylamino)butyl]-3-(6,8-dimethylimidazo[1,2-a]pyrazin-2-yl)-2H-chromen-2-one] are 190 to 193 °C, below 0.1 µM, below 300 nM and “***** (fold increase >1.65)”.
Take `Cc1ccn2cc(-c3cc4ccc(N5CCNCC5)cc4oc3=O)nc2n1` [Compound 223, 3-(7-methylimidazo[1,2-a]pyrimidin-2-yl)-7-(piperazin-1-yl)-2H-chromen-2-one]: the melting point fell in the range of 295 to 298 °C. Further, the EC (1.5-fold) in data set [1] (setting [3]) was 0.3 to 1 µM. For the same molecule, the “maximum fold (Fold) increase” value in data set [2] is “* (maximum fold increase of ≤1.2)”.
With `Cc1nc(Cl)cn2cc(-c3cc4ccc(N5CC[C@H](N(C)C)C5)cc4oc3=O)nc12` [Compound 765, 3-(6-chloro-8-methylimidazo[1,2-a]pyrazin-2-yl)-7-[(3S)-3-(dimethylamino)pyrrolidin-1-yl]-2H-chromen-2-one], the melting point lay within 210 to 215 °C. Moreover, in data set [1] (setting [3]), the EC (1.5-fold) was 0.3 to 1 µM. The “maximum fold (Fold) increase” value in data set [2] is “* (maximum fold increase of ≤1.2)”.
In turn, `O=c1oc2cc(N3CCCNCC3)cc(F)c2cc1-c1nc2ccccc2[nH]1` [Compound 374, 3-(1H-benzimidazol-2-yl)-7-(1,4-diazepan-1-yl)-5-fluoro-2H-chromen-2-one] gave a melting point of 236 to 242 °C. The EC (1.5-fold) in data set [1] (setting [3]) fell in the range of 1 to 3 µM. Besides, in data set [2], the “maximum fold (Fold) increase” value was “* (maximum fold increase of ≤1.2)”.
Consider `Cl.O=c1oc2cc(N3CCNCC3)ccc2cc1-c1nc2cccc(Cl)c2s1` [Compound 6, 3-(7-chloro-1,3-benzothiazol-2-yl)-7-(piperazin-1-yl)-2H-chromen-2-one hydrochloride], for which the melting point is 320 °C (dec.). Further, in data set [1] (setting [3]), the EC (1.5-fold) lay within 1 to 3 µM. Besides, the “maximum fold (Fold) increase” value in data set [2] is on record as “* (maximum fold increase of ≤1.2)”.
In turn, `O=c1oc2cc(N3CCNCC3)ccc2cc1-c1ccn[nH]1` [Cpd 29, 7-(piperazin-1-yl)-3-(1H-pyrazol-5-yl)-2H-chromen-2-one] returned a melting point of 224 to 228 °C. The EC (1.5-fold) in data set [1] (24 h) fell in the range of 3 to 30 µM. Also, the “maximum fold (Fold) increase” value in data set [2] was “** (fold increase between >1.2 and ≤1.35)”.
As to `C[C@@H]1CN[C@@H](C)CN1c1ccc2cc(-c3cn4ccc(C(F)(F)F)cc4n3)c(=O)oc2c1` [Compound 277, 7-[(2R,5S)-2,5-dimethylpiperazin-1-yl]-3-[7-(trifluoromethyl)imidazo[1,2-a]pyridin-2-yl]-2H-chromen-2-one], the melting point fell in the range of 213 to 219 °C. The EC (1.5-fold) in data set [1] (setting [3]) lay within 0.3 to 1 µM. In addition, in data set [2], the “maximum fold (Fold) increase” value is on record as “* (maximum fold increase of ≤1.2)”.
For the molecule `Cc1cn2cc(-c3cc4ccc(N5CCN(C6CCC6)CC5)cc4oc3=O)nc2cn1` [Compound 838, 7-(4-cyclobutylpiperazin-1-yl)-3-(6-methylimidazo[1,2-a]pyrazin-2-yl)-2H-chromen-2-one], the melting point was in the range of 268 to 274 °C. Further, in data set [1] (setting [3]), the EC (1.5-fold) is below 0.1 µM. In data set [2], the EC1.5x (concentration giving 1.5-fold Smn protein increase) is below 300 nM and the “maximum fold (Fold) increase” value was “***** (fold increase >1.65)”.
As for `Cc1cc(F)c2nc(-c3cc4ccc(N5CCN(C)[C@H](C)C5)cc4oc3=O)cn2c1` [Compound 533, 7-[(3R)-3,4-dimethylpiperazin-1-yl]-3-(8-fluoro-6-methylimidazo[1,2-a]pyridin-2-yl)-2H-chromen-2-one], the melting point is 269 to 277 °C. In data set [1] (setting [3]), the EC (1.5-fold) was below 0.1 µM. Further, in data set [2], the EC1.5x (concentration giving 1.5-fold Smn protein increase) is below 300 nM; the “maximum fold (Fold) increase” value is “**** (fold increase between >1.5 and ≤1.65)”.
